Data taken from patent EP0222274A1, “2-Hydroxybenzamides” (NIHON TOKUSHU NOYAKU SEIZO K.K., priority 1985, dated 1987).

How the values were obtained:
[1] = tested on: Plasmodiophora brassicae; assay: Control of clubroot (Kohlhernie) in "Komatsuna" grown in infected soil, dust mixed into soil; type: in vivo; conditions: 4 weeks at 20°C
From the text: (§1) Test der Bekämpfung von Kohlhernie bei "Komatsuna" (einer Varietät chinesischen Kohls):
Präparat einer aktiven Verbindung:
(§2) Aktive Verbindung: 1,5 Teile; Isopropylhydrogenphosphat (PAP): 0,5 Teile; Ton-Pulver: 98 Teile.
(§3) Die oben angegebenen Stoffe wurden pulverisiert und vermischt, wodurch ein Stäubemittel erhalten wurde.
(§4) Mit Plasmodiophora brassicae infizierte Erde wurde in unglasierte Töpfe mit einem Durchmesser von 21 cm gefüllt, und ein Stäubemittel einer Verbindung gemäß der vorliegenden Erfindung, das wie oben angegeben hergestellt worden war, wurde in einer vorher festgelegten Konzentration gleichmäßig mit der Erde vermischt.
(§5) Samen von "Komatsuna" (Varietät: Misugi) wurden in einer Menge von 20 Körnern pro Topf eingesät. Die Töpfe wurden 4 Wochen in einem auf 20°C gehaltenen klimatisierten Gewächshaus gehalten. Dann wurden die Pflanzen ausgegraben, und der Krankheitszustand wurde nach dem folgenden Maßstab bewertet. Der Erkrankungs-Index und das Verhältnis der erkrankten Pflanzen wurden berechnet.
3: L₁ = Zahl der Pflanzen, deren Wurzeln durch das Auftreten der Kohlhernie (Kropfkrankheit) sehr stark vergrößert worden waren; 2: L₂ - Zahl der Pflanzen, bei denen Kohlhernie auftrat, jedoch auf die Pfahlwurzeln beschränkt war; 1: L₃ = Zahl der Pflanzen, bei denen geringsfügiges Auftreten von Kohlhernie beobachtet wurde; 0: L₄ = Zahl der gesunden Pflanzen. [formula]

[2] = tested on: "Komatsuna" (einer Varietät chinesischen Kohls); assay: Phytotoxicity to "Komatsuna" in the clubroot control test; type: in vivo, "Komatsuna" (Varietät: Misugi)
From the text: as §1, §2, §3, §4, §5

[3] = tested on: Rosellinia necatrix; assay: Control of root mould (Wurzelschimmel) in apple, cut twigs in infected soil; type: in vivo; conditions: Konzentration des Wirkstoffs 0,1 %; 5 ml per 100 ml soil; apple twigs (Star King), 3 weeks at 25°C; score 0 (kein Befall) to 5
From the text: (§6) Aktive Verbindung: 50 Gew.-Teile; Träger: 45 Gew.-Teile einer Mischung aus Diatomeenerde und Kaolin (1:5), Emulgator: 5 Gew.Teile Polyoxyethylenalkylphenylether.
(§7) Die aktive Verbindung, der Träger und der Emulgator in den oben angegebenen Mengen wurden pulverisiert und miteinander zu einem benetzbaren Pulver vermischt. Eine vorher festgegegte Menge des benetzbaren Pulvers wurde mit Wasser vermischt.
Test der Bekämpfung des Wurzelschimmels beim Apfel
In Reiskleie kultivierter Rosellinia necatrix wurde in sterilisierte Erde inokuliert, um eine infizierte Erde herzustellen. Eine wie in Beispiel 5 präparierte aktive Verbindung in vorher festgelegter Konzentration wurde in einer Menge von 5 ml pro 100 ml Erde gleichmäßig in die Erde hineingegossen und ausreichend mit dieser ver mischt. Abgeschnittene Apfelzweige (Varietät: Star King) wurden senkrecht in der Erde eingebettet, so daß die Hälfte jedes Zweiges in der Erde steckte. Die Zweige wurden dann unter Gewächshaus-Bedingungen bei 25°C gehalten. Drei Wochen später wurde der Grad des Befalls der Zweige durch den oben bezeichneten Pilz beurteilt und nach dem Grad der Verletzung anhand der folgenden […] bewertet:
0: Kein Befall; 1: geringfügiger Befall wurde beobachtet; 2: Befall wurde beobachtet auf 3 % bis weniger als 10 % der Oberfläche der Zweige; 3: Befall wurde beobachtet auf 10 % bis weniger als 30 % der Oberfläche der Zweige; 4: Befall wurde beobachtet auf 30 % bis weniger als 50 % der Oberfläche der Zweige; 5: Befall wurde beobachtet auf wenigstens 50 % der Oberfläche der Zweige.

[4] = tested on: Rhizopus oryzae; assay: Control of damping-off of rice seedlings, soil drench; type: in vivo; conditions: 500 ml per box, rice (Kusabue)
From the text: Test der Bekämpfung des Umfallens von Reis-Setzlingen (Wurzelbrand der Keimpflanzen)
Präparat einer Test-Verbindung:
as §6, §7
Sterilisierte Erde wurde mit in Reiskleie kultiviertem Rhizopus oryzae inokuliert. Die Erde wurde in Anzuchtkästen für Sämlinge (60 cm x 40 cm x 3 cm) eingefüllt. Die wie oben angegeben präparierte aktive Verbindung wurde in vorher festgelegter Konzentration in einer Menge von 500 ml pro Kasten gleichmäßig in die Erde hineingegossen. Samen von Reis (Varietät: Kusabue) wurden in einer Menge von 200 g (Trockengewicht) pro Kasten ausgesät und drei Tage in einer Anzucht-Vorrichtung bei 32°C kultiviert. Danach wurden die Anzucht-Kästen in ein Glashaus überführt und in üblicher Weise gehalten. 20 Tage später wurden 200 Setzlinge aus der Mitte jedes Anzuchtkastens herausgezogen, und der Grad der Verletzung wurde nach dem folgenden Maßstab bewertet. Der Bekämpfungs-Index und das Verhältnis der gesunden Setzlinge wurden berechnet.
Grad der Verletzung: 0: n₀ = gesunde Setzlinge; 1: n₁ = Setzlinge, bei denen das Wachstum der Haarwurzeln in geringem Maße schlecht war; 2: n₂ = Setzlinge, bei denen eine keulenartige Verformung teilweise an den Pfahlwurzeln beobachtet wurde; 3: n₃ = Setzlinge, bei denen das Wachstum der Pfahlwurzeln außerordentlich schlecht war und viele keulenartige Verformungen auftraten; 4: n₄ = Setzlinge, die keulenartig geworden waren, mit gehemmtem Wachstum der Pfahlwurzeln und Deckwurzeln.

[5] = Konzentration des Wirkstoffs 0,1 %
[6] = Konzentration des Wirkstoffs 0,15 %

## O=[N+]([O-])c1c(Cl)c(Cl)c(Cl)c(Cl)c1Cl [PCNB handelsüblich, Pentachloronitrobenzol, reference compound]
[1]; Menge des Wirkstoffs 60 kg/ha
  Erkrankungs-Index: 58,3%
  Verhältnis der erkrankten Pflanzen: 75%
[2]; Menge des Wirkstoffs 60 kg/ha
  Phytotoxizität: keine

## COC(NC(=O)c1cc(Cl)ccc1O)C(Cl)(Cl)Cl (centres unmarked) [Verbindung 13]
[3]
  Grad der der Verletzung: 0,5
[4]; [5]
  Bekämpfungs-Index: 94%
  Grad der Verletzung: 3,0%
  Verhältnis der gesunden Setzlinge: 85,0%

## O=C(NC(OCC(F)(F)F)C(Cl)(Cl)Cl)c1cc(Cl)ccc1O (centres unmarked) [Verbindung 4, N-[2,2,2-Trichloro-1-(2,2,2-trifluoroethoxy)ethyl]-5-chloro-2-hydroxybenzamid]
[1]; Menge des Wirkstoffs 5 kg/ha
  Erkrankungs-Index: 0%
  Verhältnis der erkrankten Pflanzen: 0%
[2]; Menge des Wirkstoffs 5 kg/ha
  Phytotoxizität: keine
[4]; [5]
  Bekämpfungs-Index: 95%
  Grad der Verletzung: 2,5%
  Verhältnis der gesunden Setzlinge: 91,5%

## C=CCOC(NC(=O)c1cc(Cl)ccc1O)C(Cl)(Cl)Cl (centres unmarked) [Verbindung 2, N-(2,2,2-Trichloro-1-allyloxyethyl)-5-chloro-2-hydroxybenzamid]
[1]; Menge des Wirkstoffs 5 kg/ha
  Erkrankungs-Index: 0%
  Verhältnis der erkrankten Pflanzen: 0%
[2]; Menge des Wirkstoffs 5 kg/ha
  Phytotoxizität: keine
[4]; [5]
  Bekämpfungs-Index: 95%
  Grad der Verletzung: 2,7%
  Verhältnis der gesunden Setzlinge: 90,5%

## N#Cc1c(Cl)c(Cl)c(Cl)c(C#N)c1Cl [TPN handelsüblich, Tetrachloroisophthalsäurenitril, reference compound]
[4]; [6]
  Bekämpfungs-Index: 85%
  Grad der Verletzung: 7,3%
  Verhältnis der gesunden Setzlinge: 75,5%

## CCOC(NC(=O)c1cc(Cl)ccc1OC(C)=O)C(Cl)(Cl)Cl (centres unmarked) [Verbindung 20, N-(2,2,2-Trichloro-1-ethoxyethyl)-2-acetoxy-5-chlorobenzamid]
[3]
  Grad der der Verletzung: 0,3

## CC(=O)Oc1ccc(Cl)cc1C(=O)NC(OCC(F)(F)F)C(Cl)(Cl)Cl (centres unmarked) [Verbindung 12]
[1]; Menge des Wirkstoffs 5 kg/ha
  Erkrankungs-Index: 0%
  Verhältnis der erkrankten Pflanzen: 0%
[3]
  Grad der der Verletzung: 0
[2]; Menge des Wirkstoffs 5 kg/ha
  Phytotoxizität: keine
[4]; [5]
  Bekämpfungs-Index: 94%
  Grad der Verletzung: 3,0%
  Verhältnis der gesunden Setzlinge: 90,5%

## CCCCNC(=O)n1c(NC(=O)OC)nc2ccccc21 [Benomyl handelsüblich, Methyl-1-(butylcarbamoyl)-2-benzimidazolcarbamat, reference compound]
[3]
  Grad der der Verletzung: 1

## O=C(NC(OCCBr)C(Cl)(Cl)Cl)c1ccccc1O (centres unmarked) [B-1, reference compound]
[2]; Menge des Wirkstoffs 20 kg/ha
  Phytotoxizität: keine
[4]; [5]
  Bekämpfungs-Index: 60%
  Grad der Verletzung: 19,6%
  Verhältnis der gesunden Setzlinge: 55,5%

## CCOC(NC(=O)c1ccccc1O)C(Cl)(Cl)Cl (centres unmarked) [A-1, reference compound]
[3]
  Grad der der Verletzung: 3
[2]; Menge des Wirkstoffs 20 kg/ha
  Phytotoxizität: keine
[4]; [5]
  Bekämpfungs-Index: 43%
  Grad der Verletzung: 28,3%
  Verhältnis der gesunden Setzlinge: 35,5%

## CCOC(NC(=O)c1cc(Cl)ccc1O)C(Cl)(Cl)Cl (centres unmarked) [Verbindung 1, N-(2,2,2-Trichloro-1-ethoxyethyl)-5-chloro-2-hydroxybenzamid]
[1]; Menge des Wirkstoffs 5 kg/ha
  Erkrankungs-Index: 0%
  Verhältnis der erkrankten Pflanzen: 0%
[2]; Menge des Wirkstoffs 5 kg/ha
  Phytotoxizität: keine

## O=C(NC(OCC(F)(F)F)C(Cl)(Cl)Cl)c1cc(Br)ccc1O (centres unmarked) [Verbindung 8]
[1]; Menge des Wirkstoffs 5 kg/ha
  Erkrankungs-Index: 1,3%
  Verhältnis der erkrankten Pflanzen: 7%
[3]
  Grad der der Verletzung: 0,5
[2]; Menge des Wirkstoffs 5 kg/ha
  Phytotoxizität: keine
